The values that follow come from patent publication US20110212031A1, “NOVEL SUBSTITUTED AZABENZOXAZOLES” (priority 2008, published 2011).

Test [1] has as its target T1, human MAO-B (Homo sapiens, UniProt P27338).
T1 construct: purchased BD Biosciences Discovery Labware, Woburn Mass; (BD Supersomes Enzymes); host or cells: insect cells
T1 sequence (P27338 1-520): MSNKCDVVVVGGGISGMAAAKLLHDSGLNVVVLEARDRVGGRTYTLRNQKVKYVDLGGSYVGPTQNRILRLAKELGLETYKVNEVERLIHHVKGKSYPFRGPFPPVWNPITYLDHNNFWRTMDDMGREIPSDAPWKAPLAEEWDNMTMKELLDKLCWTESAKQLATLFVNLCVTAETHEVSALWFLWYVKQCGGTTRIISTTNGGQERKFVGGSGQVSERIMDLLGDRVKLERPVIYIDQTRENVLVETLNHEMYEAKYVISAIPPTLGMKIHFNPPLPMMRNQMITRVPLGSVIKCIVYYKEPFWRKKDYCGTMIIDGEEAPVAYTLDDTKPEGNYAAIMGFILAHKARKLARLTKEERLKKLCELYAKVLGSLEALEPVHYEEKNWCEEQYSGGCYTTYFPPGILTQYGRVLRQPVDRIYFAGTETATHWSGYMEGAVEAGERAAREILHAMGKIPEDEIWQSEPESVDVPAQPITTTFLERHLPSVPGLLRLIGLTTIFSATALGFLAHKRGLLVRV
Kind of test: Monoamine oxidase B functional assay (kynuramine deamination, fluorescence). As to conditions: membrane fractions from insect cells expressing human MAO-B; kynuramine substrate. The format is biochemical. The method, then:
Functional assay: MAO-B containing membrane fractions prepared from insect cells expressing human MAO-B (BD Supersomes Enzymes, BD Biosciences Discovery Labware, Woburn Mass.) were used as a source of MAO-B. Assays were conducted in 96-well plates in a final volume of 200 μL. The assay buffer was 0.1 M potassium phosphate (pH 7.4). The assay system consisted of three mixes: a) inhibitor dilution mix, which was the assay buffer, b) substrate/buffer/control insect cell protein mix: 4× substrate-80 μM kynuramine and 4× control insect cell protein, and c) enzyme/buffer mix: 4× concentrate of MAO-B prepared in assay buffer. The final MAO-B concentration was 0.015 mg/mL. The final total, normalized protein concentration, using control insect protein, was 0.06 mg/mL. Test compounds were serial diluted 3-fold in the inhibitor dilution mix directly in the 96-well plate (total final volume of 100 μL). Fifty μL of the substrate/buffer mix was added to each well. The 96-well plate, containing test compound and MAO substrate (150 μL total volume), was preincubated to 37° C. The reaction was initiated with 50 μL of enzyme/buffer mix. […] Product formation was quantified by comparing the fluorescence emission of the samples to that of known amounts of authentic metabolite standard, 4-hydroxyquinoline, the product formed from kynuramine deamination. […]

Test [2] addresses T1, human MAO-B. Briefly: MAO-B radioligand binding assay ([3H]-DMAB or [3H] 5-Fluoro-2-(1-methyl-1H-indazol-5-yl)-oxazolo[5,4-b]pyridine). The following applies: membrane fractions from insect cells expressing human MAO-B; radioligand 8-10 nM. The method, then:
Radioligand binding assay: MAO-B containing membrane fractions prepared from insect cells expressing human MAO-B (BD Supersomes Enzymes, BD Biosciences Discovery Labware, Woburn Mass.) were used as a source of MAO-B. [^3H]-DMAB or [^3H] 5-Fluoro-2-(1-methyl-1H-indazol-5-yl)-oxazolo[5,4-b]pyridine were synthesized at a specific activity of ˜80 Ci/mmol. The final concentration of radioligand for tissue homogenate binding assay was 8-10 nM. MAO-B membrane fractions were diluted with phosphate buffered saline (PBS) to 0.25 mg/mL from original 5 mg/mL volume and 200 μl was used in assay for a final mass of 50 μg/assay tube. Unlabeled test compounds were dissolved in dimethylsulfoxide (DMSO) at 1 mM. Dilution of test compound to various concentrations was made with PBS containing 2% DMSO. Total binding was defined in the absence of competing compound, and non-displaceable binding was determined in the presence of 1 μM unlabeled self block. Compound dilutions (10×) were added into the assay tube (25 μL each per tube, separately) containing 200 μL diluted MAO-B membrane fraction, and the tubes were pre-incubated at room temperature for 10 minutes. […] Filters were punched into scintillation vials and counted in 2 mL Ultima Gold on Perkin Elmer Tri-Carb 2900TR for 1 minute. […]

As for `Cn1ccc2cc(-c3nc4ccc(F)nc4o3)cnc21`, the Ki (usually a dissociation constant, usually derived from enzyme kinetics or from competition with a known ligand) in test [1] came out at 18 nM.

As for `CN(C)c1ccc(-c2nc3ccc(F)nc3o2)cc1`, the IC50 – broadly, the concentration that inhibits the measured activity by half – in test [2] is 31 nM.

Consider `Cn1ccc2cc(-c3nc4ccc(F)nc4s3)cnc21`, for which, in test [2], the 50% inhibitory concentration (IC50) stood at 3.7 nM.
